Structures can show the parent of a compound that is named as a salt.
Legend:
[1] = tested on: tobacco mesophyll protoplasts; assay: Endocytosis experiments with tobacco mesophyll protoplasts (Example 11); type: cell-based, Nicotiana tabacum; settings: 1 mM LYCH, overnight in W5
Procedure: Tobacco protoplasts were mixed with MSN in W5 media (Spangenberg et al., supra) using 10^6 cells for 10 μg of MSN. The mix was incubated overnight in 3 mL of W5 in BD Falcon 6-well flat-bottom plates. To remove non-engulfed MSN (except for FIG. 20A), the mixture were overlaid on K4 medium (Spangenberg et al., supra) and centrifuge at 100×g for 10 minutes at room temperature. The protoplasts at the interphase were collected and evaluated. Isolated live cells experiments images were taken using a 63× oil objective with a Leica TCS/NT laser scanning confocal microscope equipped with Argon 488 nm and Krypton 568 nm lasers plus a double dichroic DD488/568 filter. To detect fluorescence in the green channel, a combination of RSP580 and BP525/25 filters was used under wavelength between 500 and 550 nm. For the red channel, wavelength above 590 nm was selected using a LP590 filter. During scanning, pinhole was maintained at 1 for all images. Images were acquired using TCS software and analyzed using ImageJ (Abramoff et al., Biophotonics Int'l 2004, 11:36). Whole tissue images were taken under either bright field or GFP band pass exciter 460-490 nm with emission filter 510-550 nm using an Olympus SHZ10 stereoscope coupled to a SPOT RT color CCD camera (Diagnostic Instrument Inc.). Images were acquired with SPOT software.

[2] = DTT-induced drug/neurotransmitter release study (HPLC); type: physicochemical; settings: for release within 24 hours as share of total release seen in 3 days: from CdS-capped MSN after 18.5 mM DTT; for amount released after 3 days of DTT-induced uncapping / encapsulated molecule released after 3 days of DTT-induced uncapping: from CdS-capped MSN, PBS pH 7.4
Procedure: CdS-capped MSN with vancomycin or ATP (10.00 mg) material was dispersed in 1.50 mL of PBS buffer (pH 7.4), followed by repeating wash/sonication/centrifugation cycles for five times to remove physisorbed, uncapped vancomycin or ATP molecules on the exterior surface of the material. The purified MSN/drug composite was redispersed in 3.50 mL of PBS buffer (pH 7.4). Aliquots were taken every 4 hours over a time period of 12 hours from the MSN/water suspension and injected to an analytical HPLC system (Hitachi LC/3DQMS with a reverse phase C18 column (Vydac), 0.4 cm×25 cm) to monitor the leaching of the mesoporous channel encapsulated vancomycin or ATP molecules. After 12 hours, dithiothreitol (DTT, 18.50 mM) was added to the suspension to cleave the disulfide linkage between the CdS nanoparticle and the MSN. The kinetic profiles of the DTT-induced release of vancomycin and ATP were monitored by following two literature-reported HPLC separation conditions. The peaks/areas at 280 and 258 nm were monitored/integrated for the quantitative analysis of amounts of released vancomycin and ATP, respectively. See Farin et al., J. Pharm. Biomed. Anal. 1998, 18:367; and Veciana-Nogues et al., Food Chem. 1997, 59:467.

[3] = Loading of vancomycin and ATP into linker-MSN with CdS capping, HPLC of filtrate; type: physicochemical; settings: for loading efficiency: CdS-capped linker-MSN; for amount of mesopore-encapsulated molecule: per 100.0 mg of linker-MSN material, from concentration decrease in filtrate
Procedure: Purified linker-MSN material from sub-part (b) below (100.00 mg) was incubated in a PBS buffer solution (0.60 mL, pH 7.4) of ATP or vancomycin (3.00 μmol in both cases) for 24 hours. Mercaptoacetic acid-functionalized CdS nanoparticles from sub-part (c) below (0.15 mmol) were dissolved in 2.00 mL of PBS buffer with vancomycin or ATP (0.01 mmol in both cases); 1-[3-(dimethylamino)propyl]-3-ethylcarbodiimide hydrochloride (EDC) (57.50 mg, 0.30 mmol) was added to the CdS/drug solution. The reaction mixture was allowed to stir for 24 hours, followed by centrifuging the suspension at 12,000 rpm for 3 minutes. The resulting precipitates (ATP- or vancomycin-loaded, CdS-capped MSNs) were isolated and dried under vacuum.
The water-soluble CdS nanocrystals (average particle diameter of 2.0 nm) with mercaptoacetic acid groups were covalently captured and formed amide bonds by reacting with the mesopore surface-bound 2-(propyldisulfanyl)ethylamine linkers of the MSN/drug composite material in aqueous solutions. The resulting reaction suspensions were centrifuged, and the CdS-capped MSN/drug composite materials along with the unreacted CdS nanoparticles were filtered. The concentrations of the free vancomycin and ATP molecules in the filtrate were then determined by HPLC. The calculated concentration decreases of solution vancomycin and ATP were attributed to the amounts of mesopore-encapsulated vancomycin (2.5 μmol) and ATP (4.7 μmol) per 100.0 mg of linker-MSN material. These numbers correspond to ca. 83.9 and 30.3 mol % loading efficiency, respectively.

type-1 astrocytes = assay: Intracellular calcium imaging (Fura-2) of astrocyte cultures; settings: no MSNs
Procedure: After incubation, tissue was rinsed with EBSS solution and incubated for 5 minutes in trypsin-inhibitor solution (1 mg/mL; Gibco-Invitrogen Co.). After being rinsed, once with EBSS solution and once with culture medium (consisting of α-minimum essential medium (α-MEM; Gibco-Invitrogen Co.) supplemented with 10% heat-inactivated fetal bovine serum (FBS; Gibco-Invitrogen Co.) and 1.00 mL of penicillin-streptomycin solution (Sigma-Aldrich Co.) per 100 mL), the tissue was mechanically dispersed in culture medium by triturating through a fire-polished glass pipet. The cell suspension was transferred to sterile 15-mL centrifuge tubes and spun at 1000 g for 10 minutes. Cell pellets were resuspended in culture medium (α-MEM supplemented with 10% heat-inactivated FBS and 1.00 mL of penicillin-streptomycin solution per 100.00 mL) and plated in culture flasks. […] Culture medium was changed every 2 to 3 days. When mixed cultures reached confluence (9-12 days), the flasks were shaken (260 rpm) for 90 minutes to remove microglia and dividing type I astroglia. After shaking the cells, medium was replaced, and the flasks were incubated for 1 hour to equilibrate with CO2 in the fresh medium. […]
The effect of experimental manipulation on the intracellular calcium concentration ([Ca^2+]i) of cultured cells was evaluated by ratiometric imaging techniques. […]

protoplasts = settings: 1-2 mg of DNA per 10^6 cells; cited from earlier work

| Compound | release within 24 hours as share of total release seen in 3 days [2] [%] | amount released after 3 days of DTT-induced uncapping [2] [µmol] | encapsulated molecule released after 3 days of DTT-induced uncapping [2] [%] | loading efficiency [3] | amount of mesopore-encapsulated molecule [3] [µmol] | further results |
| --- | --- | --- | --- | --- | --- | --- |
| Lucifer Yellow CH, lithium salts |  |  |  |  |  | protoplasts that underwent endocytosis [1]: 26±7% |
| Nc1ncnc2c1ncn2[C@@H]1O[C@H](COP(=O)([O-])OP(=O)([O-])OP(=O)(O)O)[C@@H](O)[C@H]1O.[Na+].[Na+] [ATP, adenosine triphosphate disodium salt] | 85 | 1.3 | 28.2 | ~30.3 mol % | 4.7 | change of intracellular [Ca2+]i (type-1 astrocytes; 100.0 μM, ME-treated astrocytes): obvious increases in [Ca^2+]i |
| CN[C@H](CC(C)C)C(=O)N[C@H]1C(=O)N[C@@H](CC(N)=O)C(=O)N[C@H]2C(=O)N[C@H]3C(=O)N[C@H](C(=O)N[C@H](C(=O)O)c4cc(O)cc(O)c4-c4cc3ccc4O)[C@H](O)c3ccc(c(Cl)c3)Oc3cc2cc(c3O[C@@H]2O[C@H](CO)[C@@H](O)[C@H](O)[C@H]2O[C@H]2C[C@](C)(N)[C@H](O)[C@H](C)O2)Oc2ccc(cc2Cl)[C@H]1O [vancomycin, Vancomycin hydrochloride] | 85 | 1.6 | 53.8 | ca. 83.9 mol % | 2.5 |  |
| polyethylene glycol [polyethylene glycol (PEG)] |  |  |  |  |  | transient transformation efficiency (protoplasts): 40-90% |
| OCCS [ME] |  |  |  |  |  | change of intracellular [Ca2+]i (type-1 astrocytes; perfusion 1.0 mM for 5 minutes): no increase in [Ca^2+]i |

Reference: patent US8647644B1, “Methods of using capped mesoporous silicates” (Iowa State University Research Foundation, Inc., priority 2006, dated 2014)
